A word on the Ki: it is a dissociation constant, usually derived from enzyme kinetics or from competition with a known ligand. Lower therefore signals a stronger hold on the target.

SMILES strings stand for the structures.

PI3K-gamma, sequence (P48736 whole entry, species assumed): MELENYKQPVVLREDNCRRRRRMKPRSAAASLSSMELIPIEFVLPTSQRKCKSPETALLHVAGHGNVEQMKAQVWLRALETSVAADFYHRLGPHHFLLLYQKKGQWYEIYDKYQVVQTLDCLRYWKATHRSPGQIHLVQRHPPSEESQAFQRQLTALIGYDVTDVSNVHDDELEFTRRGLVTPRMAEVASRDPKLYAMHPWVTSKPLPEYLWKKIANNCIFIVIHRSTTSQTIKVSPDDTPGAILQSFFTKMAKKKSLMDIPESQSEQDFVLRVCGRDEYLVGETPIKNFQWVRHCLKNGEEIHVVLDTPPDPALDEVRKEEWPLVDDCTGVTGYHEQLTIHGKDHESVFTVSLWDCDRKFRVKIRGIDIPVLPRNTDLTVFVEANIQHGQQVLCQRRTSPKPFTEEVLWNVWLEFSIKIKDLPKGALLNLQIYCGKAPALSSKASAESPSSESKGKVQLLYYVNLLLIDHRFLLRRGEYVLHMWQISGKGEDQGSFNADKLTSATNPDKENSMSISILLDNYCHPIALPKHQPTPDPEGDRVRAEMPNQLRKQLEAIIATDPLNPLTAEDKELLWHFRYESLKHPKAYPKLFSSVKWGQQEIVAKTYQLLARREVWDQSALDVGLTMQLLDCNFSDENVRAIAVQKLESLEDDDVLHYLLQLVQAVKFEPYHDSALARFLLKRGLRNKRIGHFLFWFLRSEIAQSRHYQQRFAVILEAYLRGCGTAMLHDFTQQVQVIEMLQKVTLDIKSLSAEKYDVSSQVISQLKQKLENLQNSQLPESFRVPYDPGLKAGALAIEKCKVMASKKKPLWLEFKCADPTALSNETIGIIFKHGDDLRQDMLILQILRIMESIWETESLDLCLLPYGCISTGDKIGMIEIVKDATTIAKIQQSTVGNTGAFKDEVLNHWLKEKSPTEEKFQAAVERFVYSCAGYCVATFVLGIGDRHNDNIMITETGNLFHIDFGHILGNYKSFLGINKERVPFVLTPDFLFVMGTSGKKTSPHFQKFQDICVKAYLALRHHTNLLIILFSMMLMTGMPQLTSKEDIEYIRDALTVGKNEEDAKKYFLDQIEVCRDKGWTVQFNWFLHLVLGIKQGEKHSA

The first test has as its target PI3K-gamma (Homo sapiens, UniProt P48736). Briefly: PI3K inhibition assay (33P-ATP, PI(4,5)P2 substrate), PI3K-gamma. Also: 2 nM enzyme. It counts as biochemical.
Settings: not given
On the procedure:
One test well also contained 1.5 μL of DMSO with no compound. […] Using a Titertek Multidrop, 50 μL of Reaction Mix [100 mM HEPES pH 7.5, 50 mM NaCl, 10 mM DTT, 0.2 mg/mL BSA, 60 μM phosphatidylinositol(4,5)bisphosphate diC16 (PI(4,5)P2; Avanti Polar Lipids, Cat. No. 840046P) and PI3K isoform of interest (see Table 3 for isoform concentrations)] was added to each well. To initiate the reaction, 50 μL of ATP Mix [20 mM MgCl2, 6 μM ATP (100 μCi/μmole ^33P-ATP)] was added each well, followed by incubating the wells for 30 min. at 25° C. Final concentrations in each well were 50 mM HEPES 7.5, 10 mM MgCl2, 25 mM NaCl, 5 mM DTT, 0.1 mg/mL BSA, 30 μM PI(4,5)P2, 3 μM ATP, and the PI3K isoform of interest (see Table 2). Final compound concentrations in each well ranged from 10 μM to 1 nM.
After incubation, the reactions in each well were quenched by addition of 50 μL of stop solution [30% TCA/Water, 10 mM ATP]. […] 50 μL of scintillation fluid was added to each well and the plate read on a Perkin-Elmer TopCount™ NXT liquid scintillation counter to obtain ^33P-counts representing inhibition values.
The value for the background well was subtracted from the value obtained for each test well and the data were fit to the competitive tight binding Ki equation described by Morrison and Stone, Comments Mol. Cell Biophys.
`Cc1cc(-c2cncc(OCC(F)F)c2)nc2c1C(=O)N(c1ccn(C3CCOC3)n1)C2` (single isomer, unassigned) [Compound 863] showed a Ki of under 100 nM.
The same measure, in the same setting: the value for `COc1cc(-c2ccc3c(c2)CN(c2cn[nH]c2)C3=O)cnc1OC` [Compound 13] was 100 to 490 nM; that for `COc1cc(-c2ccc3c(n2)CN(c2ccc(N(C)CCN(C)C)nc2)C3=O)cnc1OC` [Compound 195] was 500 to 2500 nM.
`CO/N=C/c1cncc(-c2cc(C)c3c(n2)C(C)(C)N(c2cnn(CC(F)(F)F)c2)C3=O)c1` [Compound 883] had a Ki of under 100 nM.
Still for that read-out and setting: the value for `COc1cc(-c2ccc3c(n2)[C@@H](N2CCOCC2)N(c2cnn(CC(F)(F)F)c2)C3=O)cnc1OC` [Compound 665] was 500 to 2500 nM.
Same read-out and setting: the value for `COc1cncc(-c2cc(C)c3c(n2)C(OC)N(c2cc[nH]n2)C3=O)c1` (centres unmarked) [Compound 759] was 500 to 2500 nM.
The compound `Cc1cc(-c2cncc([S@+](C)[O-])c2)nc2c1C(=O)N(c1cnn(CC(F)(F)F)c1)C2(C)C` [Compound 967] registered a Ki of under 100 nM.
Compound `Cc1cc(-c2cncc(S(=O)(=O)N(C)C)c2)nc2c1C(=O)N(c1ccn(C3CCOC3)n1)C2` (single isomer, unassigned) [Compound 954] gave a Ki of under 100 nM.
On the same count and under the same terms, with `COc1cc(-c2ccc3c(n2)C(N2CCCN(C)CC2)N(c2cnn(CC(F)(F)F)c2)C3=O)cnc1OC` (centres unmarked) [Compound 663] the figure was 500 to 2500 nM; with `Cc1cc(-c2cncc([S@@+](C)[O-])c2)nc2c1C(=O)N(c1cnn(CC(F)(F)F)c1)C2(C)C` [Compound 968], under 100 nM.
On the same count and under the same terms, with `COc1cncc(-c2cc(C)c3c(n2)C(C)(C)N(c2ccn(C[C@H](C)O)n2)C3=O)c1` [Compound 872] the figure was 100 to 490 nM; with `Cc1cc(-c2cnc(C)c(OCC(F)F)c2)nc2c1C(=O)N(c1ccn(C3CCOC3)n1)C2` (single isomer, unassigned) [Compound 864], under 100 nM.
`N#CCn1cc(N2Cc3cc(-c4cncc(S(N)(=O)=O)c4)ccc3C2=O)cn1` [Compound 76]: the Ki was 100 to 490 nM.

A further test concerns activated microglia. Briefly: Microglia activation assay (LPS-treated mice, Iba1 IHC of brain). Format: in vivo. Conditions: 10 mg/kg b.i.d. oral, LPS 0.5 mg/kg i.p., female C57Bl/6J mice.
Procedure: Female C57Bl/6J mice (7 weeks old) were purchased from Jackson Laboratory (Maine, US). Animals were acclimated for a week at standard laboratory conditions (12 hrs light cycles) with free access to rodent chow and water. All procedures were in accordance with the National Institute of Health Guidelines for the care and Use of Laboratory Animals and were approved by IACUCC. The endotoxin Lipopolysaccharide (LPS) (E. coli 011:B4, cat #437627) was purchased from Calbiochem. LPS was dissolved in PBS buffer at a concentration of 0.05 mg/ml and stored in frozen aliquots. At the start of the study, mice received an intraperitoneal (i.p.) injection of LPS (0.5 mg/kg) for three consecutive days. Therapeutic treatment with VRT compounds was started together with the 2nd LPS administration and maintained throughout the study. Compound was dosed twice a day orally by gavage for a total of 4 doses. 24 h following the last LPS injection, and 2 hrs following the last VRT dose, animals were sacrificed by CO2 asphyxiation. […]
Digital images were captured using the Aperio ScanScope Slide Scanner (Aperio Technologies, Vista, Calif.). Images were captured at 20× optical magnification, and analyzed using the software Definiens Developer XD. […] Compound efficacy was calculated as percent decrease in number of activated microglia relative to vehicle control.
Take `Cc1cc(-c2cncc(OC(F)F)c2)nc2c1C(=O)N(c1cnn(CC(F)(F)F)c1)C2` [Compound 271]: the “percent decrease in number of activated microglia relative to vehicle control” value is 39%.

The values above are taken from patent US10183933B2, “Isoindolinone inhibitors of phosphatidylinositol 3-kinase” (Vertex Pharmaceuticals Incorporated, priority 2009, dated 2019).
